In patent US5853731A, “Thromboxane A2 Receptor antagonism and antioxidant action of cinnamophilin and its derivatives, their pharmaceutical compositions and uses” (National Science Council, priority 1997, dated 1998):

What was measured:
rabbit platelets = experiment: Aggregation of washed rabbit platelet suspension induced by AA, PAF, collagen, U-46619, ADP and thrombin; format: cell-based
Method: A. Preparation of aggregation inducing agent
1. Collagen (bovine tendon) in 15 mM aqueous acetic acid was homogenized at 4° C. to form a well dispersed suspension in 1 mg/ml and stocked at -70° C. Before using, it was thawed and well homogenized.
2. PAF was dissolved in CCl4 and stocked at […] Before using, it was diluted with deionized water.
3. […] and sodium arachidonate (AA) were dissolved in deionized water for use.
B. Preparation of platelets
A suspension of platelets was prepared according to the reported method. EDTA (100 mM) and the blood obtained from rabbit's ear vein were mixed in the ratio of 1:4, and immediately centrifuged (120× g) at room temperature for 10 minutes. Platelet-rich plasma was subjected to further centrifuge (500× g) for another 10 minutes. After the plasma was removed, the platelets in the lower layer were suspended in the Tyrode solution containing EDTA (2 mM) and bovine serum albumin (3.5 mg/ml), and subjected to centrifuge (500× g) again for 10 minutes. The platelets obtained were suspended in a Tyrode solution containing no EDTA, and was adjusted to about 4.5×10^8 cells/ml by a cell counter. 1 mM of calcium ion (Ca^2+) was added to the suspension. 30 minutes after the addition, the experiment was conducted. The composition of Tyrode […]: NaCl (136.9), KCl (2.7), NaH2 PO4 (0.4), NaHCO3 (11.9), glucose (11.1).
C. Platelet aggregation and ATP release reaction test
The method reported by Born (J. Physiol. 168, 178, 1963) was used to determine the platelet aggregation by a Lumi-aggregometer (Model 1020, Payton, Canada). Platelet suspension (0.4 ml) was added into a small glass tube coated with silicone, and stirred at 900 rpm with a small magnetic stirrer. Unless otherwise specified, the antagonist was added 1 minute before the inducing agent, and all the reactions were carried out at 37° C. The aggregation was calculated by following formula: […]
aggregation (% )=(light absorption before adding inducing agent-light absorption after adding inducing agent)/(light absorption before adding inducing agent-light absorption of Tyrode solution)×100% […]
| Platelets were precincubated with 1a, 1b, 1c, 1e, 2 or DMSO (0.5%, | control) at 37° C. for 3 min, then the inducer was added.

rat thoracic aorta = experiment: Rat aortic contraction caused by norepinephrine and high potassium (KCl); format: cell-based, Wistar rat; details: 15 min; for K+ contraction (%), Tonic: K+ (80 mM); for norepinephrine contraction (%), Phrase (phasic) / norepinephrine contraction (%), Tonic: norepinephrine 3 μM
Method: A. Rat Aortic Contraction
Wistar rats of either sex weighing 250 g to 300 g were killed by a blow to the head. The thoracic aorta was isolated and excess fat and connective tissue were removed. Vessels were cut into rings of about 5 mm in length and mounted in organ baths containing 5 ml Krebs solution of the following composition (mM): NaCl (118.4), KCl (4.7), CaCl (1.9), MgSO4 (1.2), KH2 PO4 (1.2), NaHCO3 (25.0) and glucose (11.7). The tissue bath solution was maintained at 37° C. and gassed with 95% O2 :5% CO2 mixture. Two stainless steel hooks were inserted into the aortic lumen, one was fixed while the other was connected to a transducer. Aortae were equilibrated in the medium for 90 min with three changes of Krebs solution and maintained under an optimal tension of 1 g before specific experimental protocols were initiated.
Contraction was recorded isometrically via a force-displacement transducer connected to a Grass polygraph. Aortae were allowed to preincubate for 15 minutes with cinnamophilin before generating the cumulative concentration-response curve with each agonist for 15-30 min at 3 min intervals. Results are expressed as a percentage of the maximal control response for each agonist.
Rat aorta ring were preincubated with lignans or DMSO (0.1% control) at
37° C. for 15 min, then the inducer was added.

[1] = tested on: platelet aggregation, aortic contraction, tracheal contraction; experiment: Bioassay / pharmacological evaluation (platelet aggregation, rat aortic contraction, guinea-pig tracheal contraction); details: rat aortic and guinea-pig tracheal contraction bioassays
Method: The methods of isolation might be performed using polar organic solvent such as methanol, ethanol and acetone. Solvent of the extract from root parts of Cinnamomum philippinense was evaporated and the residue was suspended in water, and extracted with chloroform or other non-polar organic solvents. Bioassay was performed by using this chloroform layer in platelet aggregation test, rat aortic contraction, and guinea-pig tracheal contraction. Purified bioactive components were obtained through silica gel column, then afforded cinnamophilin (1), two known lignan compounds as (+)-guaiacin (3), meso-dihydroguaiaretic acid (2) and an aromatic acid as vallinic acid.
Compounds II-V wherein R1 represents H, C1-8 alkyl, --OCOR, wherein R2 represents OH, COO--, wherein R represents H, C1-8 alkyl. Preferred substituted alkyl group is 8 carbon number, optical alkyl group is 6 carbon number. Structures of these compounds were elucidated on the basis of their IR, UV, ^1 H-NMR, ^13 C-NMR, Mass spectra as well as the elemental analytical data.

[2] = target: thromboxane A2 synthetase; details: Hoet et al., Blood 75, 646-53, 1990; read-out: IC50, thromboxane A2 synthetase inhibition; cited from earlier work
thromboxane receptor = details: Hoet et al., Blood 75, 646-53, 1990; read-out: IC50, thromboxane receptor inhibition; cited from earlier work
[3] = Antioxidation (absorbance at 500 nm, FeSCN method); details: 20 μM
Source text: (Absorbance at 500 nm, using FeSCN method)

[4] = compared with BHA or BHT; background statement; cited from earlier work
[5] = inducer AA (100 μM), conc 20 μM, control 92.1 ± 1.3
[6] = inducer ADP (20 μM), conc 300 μM, control 81.6 ± 3.0
[7] = inducer PAF (2 ng/ml), conc 300 μM, control 91.7 ± 2.0
[8] = inducer U-46619 (1 μM), conc 200 μM, control 89.4 ± 1.2
[9] = inducer collagen (10 μg/ml), conc 50 μM, control 93.6 ± 1.0
[10] = inducer collagen (10 μg/ml), conc 100 μM, control 93.6 ± 1.0
[11] = inducer collagen (10 μg/ml), conc 200 μM, control 93.6 ± 1.0
[12] = inducer thrombin (0.1 U/ml), conc 300 μM, control 94.8 ± 2.0
[13] = inducer AA (100 μM), conc 50 μM, control 92.1 ± 1.3
[14] = inducer AA (100 μM), conc 100 μM, control 92.1 ± 1.3
[15] = inducer AA (100 μM), conc 200 μM, control 92.1 ± 1.3

| SMILES | Aggregation (%) (rabbit platelets; [5]) | Aggregation (%) (rabbit platelets; [6]) | Aggregation (%) (rabbit platelets; [7]) | Aggregation (%) (rabbit platelets; [8]) | Aggregation (%) (rabbit platelets; [9]) | Aggregation (%) (rabbit platelets; [10]) | Aggregation (%) (rabbit platelets; [11]) | Aggregation (%) (rabbit platelets; [12]) | K+ contraction (%), Tonic (rat thoracic aorta; conc 10 μM) [%] | norepinephrine contraction (%), Phrase (phasic) (rat thoracic aorta; conc 10 μM) [%] | norepinephrine contraction (%), Tonic (rat thoracic aorta; conc 10 μM) [%] | Aggregation (%) (rabbit platelets; [13]) | Aggregation (%) (rabbit platelets; [14]) | Aggregation (%) (rabbit platelets; [15]) | further results |
| --- | --- | --- | --- | --- | --- | --- | --- | --- | --- | --- | --- | --- | --- | --- | --- |
| COc1cc(C[C@@H](C)[C@@H](C)Cc2ccc(O)c(OC)c2)ccc1O [Compound 2, meso-dihydroguaiaretic acid, reference compound] | 0.0 ± 0.0 | 67.9 ± 8.4 | 91.7 ± 2.0 | 88.6 ± 3.2 | 79.7 ± 4.7 | 16.4 ± 4.4 | 0.0 ± 0.0 | 85.3 ± 6.6 | 14.8 ± 2.1 | 111.1 ± 6.2 | 78.4 ± 8.8 |  |  |  | Aggregation (%) (rabbit platelets; inducer AA (100 μM), conc 5 μM, control 92.1 ± 1.3): 76.0 ± 7.8%; Aggregation (%) (rabbit platelets; inducer AA (100 μM), conc 10 μM, control 92.1 ± 1.3): 5.9 ± 5.3%; K+ contraction (%), Tonic (rat thoracic aorta; conc 1 μM): 74.0 ± 4.1%; K+ contraction (%), Tonic (rat thoracic aorta; conc 3 μM): 36.5 ± 3.2%; K+ contraction (%), Tonic (rat thoracic aorta; conc 5 μM): 25.7 ± 3.9%; bioactivity [1]: has not been observed |
| COc1ccc(CC(C)C(C)C(=O)c2ccc(OC)c(OC)c2)cc1OC (stereo not shown) [Compound 4, dimethylcinnamophilin] | 87.8 ± 3.3 | 30.7 ± 13.0 | 0.0 ± 0.0 | 86.5 ± 1.7 | 86.2 ± 4.7 | 80.3 ± 3.6 | 7.5 ± 6.4 | 89.7 ± 3.5 | 10.5 | 61.3 ± 2.1 | 48.6 ± 3.3 | 75.8 ± 10.6 | 37.7 ± 1.6 | 0.0 ± 0.0 |  |
| COc1cc(CC(C)C(C)C(=O)c2ccc(OC(C)=O)c(OC)c2)ccc1OC(C)=O (stereo not shown) [Compound 5] | 86.3 ± 4.6 | 60.7 ± 12.0 | 45.2 ± 9.2 | 88.4 ± 4.3 | 93.4 ± 1.2 | 80.6 ± 4.7 | 8.4 ± 7.3 | 94.9 ± 1.0 | 18.4 ± 4.7 | 92.2 ± 13.4 | 64.6 ± 9.1 | 57.8 ± 2.8 | 0.0 ± 0.0 |  |  |
| COc1cc(CC(C)C(C)C(O)c2ccc(O)c(OC)c2)ccc1O (stereo not shown) [Compound 7, cinnamophilinol] | 86.3 ± 1.0 | 77.3 ± 4.0 | 79.7 ± 6.6 | 90.4 ± 1.4 | 89.7 ± 3.4 | 75.5 ± 2.4 | 0.0 ± 0.0 | 73.2 ± 6.8 | 66.8 ± 2.2 | 100 | 113.3 ± 7.5 | 75.5 ± 6.2 | 10.4 ± 9.0 | 0.0 ± 0.0 | K+ contraction (%), Tonic (rat thoracic aorta; conc 50 μM): 51.0 ± 4.4%; norepinephrine contraction (%), Phrase (phasic) (rat thoracic aorta; conc 50 μM): 95.5 ± 3.2%; norepinephrine contraction (%), Tonic (rat thoracic aorta; conc 50 μM): 85.3 ± 10.4% |
| O=C(O)CCCCO/N=C(/c1cccnc1)c1cccc(C(F)(F)F)c1 [ridogrel] |  |  |  |  |  |  |  |  |  |  |  |  |  |  | IC50 [2]: 5 nM; IC50 (thromboxane receptor): 2000 nM |
| Cc1c(C)c2c(c(C)c1O)CCC(C)(CCCC(C)CCCC(C)CCCC(C)C)O2 (stereo not drawn) [vitamin E, α-tocopherol, reference compound] |  |  |  |  |  |  |  |  |  |  |  |  |  |  | Absorbance at 500 nm ([3]; induce time 0, control 0.047): 0.026; Absorbance at 500 nm ([3]; induce time 4, control 0.084): 0.069; Absorbance at 500 nm ([3]; induce time 7, control 0.201): 0.083; Absorbance at 500 nm ([3]; induce time 10, control 0.343): 0.108; Absorbance at 500 nm ([3]; induce time 16): 0.176; Absorbance at 500 nm ([3]; induce time 19): 0.226; Absorbance at 500 nm ([3]; induce time 22): 0.297; Absorbance at 500 nm ([3]; induce time 25): 0.487; Absorbance at 500 nm ([3]; induce time 28): 1.024; antioxidative action on fatty oils [4]: lower than BHA (t-butylhydroxyanisole) or BHT (t-butylhydroxy toluene) |
